Data as given in patent US20150164866A1, “METHODS OF ADMINISTERING RIFAXIMIN FOR WEIGHT LOSS AND TREATMENT OF OBESITY” (Salix Pharmaceuticals, Ltd, priority 2012, published 2015).

How the values were obtained:
[1] = Laboratory assessments (lipid profile) pre- and post-treatment in obese patients; assay type: in vivo, human; conditions: RFX vs. PBO, p<0.04; 550 mg twice daily for 20 days
From the text: (§1) Patients were followed for up to six months. The primary endpoint was weight loss at the end of the study. Laboratory assessments including a basic metabolic panel, liver enzymes, lipid profile, and HbA1c (glucose testing) were obtained pre- and post-treatment.
(§2) Baseline demographic characteristics included median age of 45 (range 18-62) years, gender (73% female) average starting weight of 238.5±77.1 lbs and BMI of 38.8±9.7. Common co-morbidities included GERD (37%), hypertension (32%), diabetes (19%), and lipid disorders (14%). […] Weight loss in the rifaximin group was statistically significant (P<0.03) when compared to baseline weight. Diabetics tended to lose more weight (−6.1 lbs), and patients with underlying lipid disorders lost the least (−0.7 lbs).

[2] = tested on: species of Staphylococcus, Streptococcus, Enterococcus, and Enterobacteriaceae; conditions: in vitro data; cited from earlier work
[3] = Pilot randomized placebo-controlled study of weight loss in obese patients (BMI>30); assay type: in vivo, human
From the text: as §1, §2

COC1/C=C/OC2(C)Oc3c(C)c(O)c4c(O)c(c5c(nc6cc(C)ccn65)c4c3C2=O)NC(=O)/C(C)=C\C=C\C(C)C(O)C(C)C(O)C(C)C(OC(C)=O)C1C (stereo not shown) [RFX]
Triglycerides difference pre- to post-treatment [1]: +15.9
antibacterial activity in vitro [2]: active
mean weight lost ([3]; first study visit following treatment, 550 mg twice daily for 20 days, patients with BMI>30): 1.1 lbs
mean weight lost at the end of the study ([3]; mean follow-up of 4.9 months, 550 mg twice daily for 20 days, P<0.03 compared to baseline weight): 4.5 lbs
weight loss as compared to placebo patients ([3]; obese patients (BMI>30), pilot study): greater weight loss
weight change in diabetics ([3]; subgroup: diabetics, 550 mg twice daily for 20 days): −6.1 lbs
weight change in patients with underlying lipid disorders ([3]; subgroup: underlying lipid disorders, 550 mg twice daily for 20 days): −0.7 lbs
